{"source": "patent US12595504B2", "about": "“Methods for screening compounds for bactericidal activity and for determining the sensitivity of bacterial samples” (priority 2020, dated 2026)", "key": {"Escherichia coli MG1655": {"test_system": "Escherichia coli MG1655", "test": "Antibiotic MIC determination (serial twofold dilutions, OD600 during 17 hours at 37° C.)", "format": "cell-based", "details": "for MIC: Escherichia coli", "experimental": "The Minimal Inhibitory Concentration (MIC) of the antibiotics was determined under the same culture conditions as the tests using the ATP assay kit. […] An exponentially growing culture (OD600=0.3) was added to each well (60 μl/well) of a sterile microtiter plate containing the test concentration of antibiotic (40 μl/well). The volume was completed to 120 μl with medium and OD600 nm measurements were performed using a microtiter plate reader (Infinite 200 PRO, TECAN) during 17 hours at 37° C.\nIn all the following experiments, the MIC values were measured for each antibiotic with parameters such as temperature, OD600 and equipment identical to those used for the bioluminescence assay."}, "[1]": {"test_system": "E. coli MG1655 reporter cells", "format": "cell-based, Escherichia coli", "details": "for Amplitude of ATP release: bacteriostatic antibiotics, FIG. 9", "experimental": "The classical luciferase was from Molecular Probes (ATP Determination Kit (A22066)). The thermostable luciferase was from “CheckLite AT100” (kikkoman). The Luciferin-luciferase reagents were prepared following manufacturer instructions. Bacteria from exponentially growing cultures (OD600=0.3) were added to each well (60 μl/well) of a black 96-microtiter plate (Greiner Bio-one, 655076) and 20 μl of the luciferin-luciferase reagent solution was added. The microtiter plate was incubated 5 min at 37° C. for reaction with the luciferase to eliminate traces of extracellular ATP. Then 40 μl of antibiotic solution (3 times concentrated) prepared in the culture medium were added. Bioluminescence of each well was monitored for 4 hours under shaking (218 rpm) and at 28 or 37° C., depending on the experiments (see legends of Figures). The reagent stability in presence or absence of antibiotics was checked in control experiments without bacteria but with 4 pmoles of ATP. Tests were also performed in 384-microtiter plates (Greiner Bio-one, 784076).\nAminoglycosides are bactericidal antibiotics causing translational miscoding with lethal consequences for the cell. Leakage of small molecules following an aminoglycoside shock was previously identified by different methods including radiolabelling. Therefore, the inventors investigated the response of live cells to aminoglycoside stress."}, "[2]": {"details": "MOPS minimal medium (glucose 0.4%), FIG. 11"}, "[3]": {"details": "antibiotic at 16 μg/mL, LB, 37° C."}, "[4]": {"details": "antibiotic at 32 μg/mL, LB, 37° C."}, "[5]": {"details": "MG1655, read-out: MIC in MOPS glucose 0.4%, MOPS minimal medium glucose 0.4%, 37° C."}, "[6]": {"details": "MG1655, LB medium, OD600 0.15 final, 37° C., read-out: MIC in LB"}, "[7]": {"details": "antibiotic at 3.125 μg/mL, LB, 37° C."}, "[8]": {"details": "antibiotic at 6.25 μg/mL, LB, 37° C."}, "[9]": {"details": "antibiotic at 12.5 μg/mL, LB, 37° C."}, "[10]": {"details": "antibiotic at 25 μg/mL, LB, 37° C."}, "[11]": {"details": "antibiotic at 50 μg/mL, LB, 37° C."}}, "note": "Where two headings read alike, the source gives them in different places."}
{"compound": "Polymyxin B", "values": [{"measurement": "MIC in LB", "setting": "Escherichia coli MG1655; LB medium, OD600 0.15 final, 37° C.", "result": 8, "unit": "µg/mL"}, {"measurement": "MIC in MOPS glucose 0.4%", "setting": "Escherichia coli MG1655; MOPS minimal medium glucose 0.4%, 37° C.", "result": 4, "unit": "µg/mL"}, {"measurement": "Shape of ATP release trace", "setting": "[1]; LB medium, 37° C., FIG. 8", "result": "bi-phasic"}, {"measurement": "Dose at which the amplitude of the initial burst was maximal", "setting": "[1]; LB, FIG. 8", "result": 4, "unit": "µg/mL"}, {"measurement": "Shape of ATP release trace", "setting": "[1]; [2]", "result": "monophasic"}, {"measurement": "Intensity of ATP release signal in minimal medium compared to rich medium (factor of decrease)", "setting": "[1]; MOPS minimal medium vs LB", "result": 3}, {"measurement": "Lag before ATP release", "setting": "[1]; above the concentration of 4 μg/ml, LB", "result": "< 2.4", "unit": "min"}, {"measurement": "Lag time before ATP", "setting": "[1]; antibiotic at 2 μg/mL, LB, 37° C.", "result": 5.3, "unit": "min"}, {"measurement": "Lag time before ATP", "setting": "[1]; antibiotic at 4 μg/mL, LB, 37° C.", "result": 2.4, "unit": "min"}, {"measurement": "Lag time before ATP", "setting": "[1]; antibiotic at 8 μg/mL, LB, 37° C.", "result": "< 2.4", "unit": "min"}, {"measurement": "Lag time before ATP", "setting": "[1]; [3]", "result": "< 2.4", "unit": "min"}, {"measurement": "Lag time before ATP", "setting": "[1]; [4]", "result": "< 2.4", "unit": "min"}]}
{"compound": "CCn1cc(C(=O)O)c(=O)c2ccc(C)nc21", "note": "[Nalidixic acid]", "values": [{"measurement": "MIC", "setting": "Escherichia coli MG1655; MG1655, read-out: MIC in LB", "result": 256, "unit": "µg/mL"}, {"measurement": "MIC", "setting": "Escherichia coli MG1655; MG1655, read-out: MIC in MOPS glucose 0.4%", "result": 256, "unit": "µg/mL"}, {"measurement": "Lag time before ATP", "setting": "[1]; [3]", "result": 127.3, "unit": "min"}, {"measurement": "Lag time before ATP", "setting": "[1]; [4]", "result": 114.1, "unit": "min"}, {"measurement": "Lag time before ATP", "setting": "[1]; antibiotic at 64 μg/mL, LB, 37° C.", "result": 88.9, "unit": "min"}, {"measurement": "Lag time before ATP", "setting": "[1]; antibiotic at 128 μg/mL, LB, 37° C.", "result": 79.1, "unit": "min"}, {"measurement": "Lag time before ATP", "setting": "[1]; antibiotic at 258 μg/mL, LB, 37° C.", "result": 50.8, "unit": "min"}, {"measurement": "Lag time before ATP", "setting": "[1]; antibiotic at 516 μg/mL, LB, 37° C.", "result": 46.4, "unit": "min"}]}
{"compound": "CC1(C)S[C@@H]2[C@H](NC(=O)[C@H](N)c3ccc(O)cc3)C(=O)N2[C@H]1C(=O)O", "note": "[Amoxicillin]", "values": [{"measurement": "MIC", "setting": "Escherichia coli MG1655; [5]", "result": 12.5, "unit": "µg/mL"}, {"measurement": "MIC", "setting": "Escherichia coli MG1655; [6]", "result": 12.5, "unit": "µg/mL"}, {"measurement": "Lag time before ATP", "setting": "[1]; [7]", "result": 39.3, "unit": "min"}, {"measurement": "Lag time before ATP", "setting": "[1]; [8]", "result": 31.4, "unit": "min"}, {"measurement": "Lag time before ATP", "setting": "[1]; [9]", "result": 11.4, "unit": "min"}, {"measurement": "Lag time before ATP", "setting": "[1]; [10]", "result": 8, "unit": "min"}, {"measurement": "Lag time before ATP", "setting": "[1]; [11]", "result": 6.9, "unit": "min"}]}
{"compound": "CC[C@H]1OC(=O)[C@H](C)[C@@H](O[C@H]2C[C@@](C)(OC)[C@@H](O)[C@H](C)O2)[C@H](C)[C@@H](O[C@@H]2O[C@H](C)C[C@H](N(C)C)[C@H]2O)[C@](C)(O)C[C@@H](C)C(=O)[C@H](C)[C@@H](O)[C@]1(C)O", "note": "[Erythromycin]", "values": [{"measurement": "MIC", "setting": "Escherichia coli MG1655; [5]", "result": 1600, "unit": "µg/mL"}, {"measurement": "MIC", "setting": "Escherichia coli MG1655; [6]", "result": 400, "unit": "µg/mL"}, {"measurement": "Amplitude of ATP release", "setting": "[1]; LB", "result": "very weak amplitude"}]}
{"compound": "CO[C@@H]1[C@@H](OC(N)=O)[C@@H](O)[C@H](Oc2ccc3c(O)c(NC(=O)c4ccc(O)c(CC=C(C)C)c4)c(=O)oc3c2C)OC1(C)C", "note": "[Novobiocin]", "values": [{"measurement": "MIC", "setting": "Escherichia coli MG1655; [6]", "result": 200, "unit": "µg/mL"}]}
{"compound": "CO/N=C(\\C(=O)N[C@@H]1C(=O)N2C(C(=O)O)=C(CSc3nc(=O)c(=O)[nH]n3C)CS[C@H]12)c1csc(N)n1", "note": "[Ceftriaxone]", "values": [{"measurement": "MIC", "setting": "Escherichia coli MG1655; [5]", "result": 6.25, "unit": "µg/mL"}, {"measurement": "MIC", "setting": "Escherichia coli MG1655; [6]", "result": 12.5, "unit": "µg/mL"}, {"measurement": "Lag time before ATP", "setting": "[1]; [7]", "result": 29.7, "unit": "min"}, {"measurement": "Lag time before ATP", "setting": "[1]; [8]", "result": 21.2, "unit": "min"}, {"measurement": "Lag time before ATP", "setting": "[1]; [9]", "result": 19.2, "unit": "min"}, {"measurement": "Lag time before ATP", "setting": "[1]; [10]", "result": 16.5, "unit": "min"}, {"measurement": "Lag time before ATP", "setting": "[1]; [11]", "result": 13.9, "unit": "min"}]}
{"compound": "Cc1cc(NS(=O)(=O)c2ccc(N)cc2)no1", "note": "[Sulfamethoxazole]", "values": [{"measurement": "MIC", "setting": "Escherichia coli MG1655; [5]", "result": 1600, "unit": "µg/mL"}]}
{"compound": "CC1=C(C(=O)O)N2C(=O)[C@@H](NC(=O)[C@H](N)c3ccccc3)[C@H]2SC1", "note": "[Cephalexin]", "values": [{"measurement": "MIC", "setting": "Escherichia coli MG1655; [5]", "result": 17.4, "unit": "µg/mL"}, {"measurement": "MIC", "setting": "Escherichia coli MG1655; [6]", "result": 34.7, "unit": "µg/mL"}, {"measurement": "Shape of ATP release trace", "setting": "[1]; LB medium, 37° C., FIG. 8", "result": "multiphasic"}, {"measurement": "Shape of ATP release trace", "setting": "[1]; [2]", "result": "monophasic"}, {"measurement": "Lag time before ATP", "setting": "[1]; antibiotic at 8.8 μg/mL, LB, 37° C.", "result": 34.3, "unit": "min"}, {"measurement": "Lag time before ATP", "setting": "[1]; antibiotic at 17.5 μg/mL, LB, 37° C.", "result": 9.45, "unit": "min"}, {"measurement": "Lag time before ATP", "setting": "[1]; antibiotic at 35 μg/mL, LB, 37° C.", "result": 5, "unit": "min"}, {"measurement": "Lag time before ATP", "setting": "[1]; antibiotic at 70 μg/mL, LB, 37° C.", "result": 3.6, "unit": "min"}, {"measurement": "Lag time before ATP", "setting": "[1]; antibiotic at 140 μg/mL, LB, 37° C.", "result": 3.6, "unit": "min"}, {"measurement": "Lag before ATP release (shortest, incompressible value)", "setting": "[1]; highest concentrations tested, LB, 37° C.", "result": 3.6, "unit": "min"}]}
{"compound": "CN[C@@H]1[C@H](O)[C@H](NC)[C@H]2O[C@@]3(O)C(=O)C[C@@H](C)O[C@H]3O[C@@H]2[C@H]1O", "note": "[Spectinomycin]", "values": [{"measurement": "MIC", "setting": "Escherichia coli MG1655; [5]", "result": 100, "unit": "µg/mL"}, {"measurement": "MIC", "setting": "Escherichia coli MG1655; [6]", "result": 50, "unit": "µg/mL"}, {"measurement": "Amplitude of ATP release", "setting": "[1]; LB", "result": "very weak amplitude"}]}
{"compound": "CCN1CCN(C(=O)N[C@@H](C(=O)N[C@@H]2C(=O)N3[C@@H]2SC(C)(C)[C@@H]3C(=O)O)c2ccccc2)C(=O)C1=O", "note": "[Piperacillin]", "values": [{"measurement": "MIC", "setting": "Escherichia coli MG1655; [6]", "result": 200, "unit": "µg/mL"}]}
